A short description of this data set: Dynamic vapor sorption (DVS) analysis. The settings on record: bulk material, a batch of Compound 1; FIG. 5. Type of data set: physicochemical.

These results are taken from US20230365555A1, “CRYSTALLINE POLYMORPH FORM A OF A JAK INHIBITORAND METHODS FOR ITS PREPARATION” (ACLARIS THERAPEUTICS, INC., priority 2020, published 2023).

Each structure is given as a SMILES string.

With `CCOC(=O)c1cnc2[nH]ccc2c1N[C@@H]1CCCN(C(=O)CC#N)C1` [Compound 1, ethyl (R)-4-((1-(2-cyanoacetyl)piperidin-3-yl)amino)-1H-pyrrolo[2,3-b]pyridine-5-carboxylate], the “moisture uptake (DVS isotherms)” value is listed as “low moisture uptake”.
